Source: patent US9056108B2, “Method of treating atrial fibrillation” (Gilead Sciences, Inc., priority 2009, dated 2015)

How the values were obtained:
[1] = tested on: ACh-mediated persistent AF in isolated canine coronary-perfused right atria; assay: Acetylcholine (ACh)-mediated persistent AF model in coronary-perfused right atria; details: for Termination Persistent AF: ACh 1 μM-mediated persistent AF; for Prevention of AF re-induction: after termination of ACh-mediated AF; for Reduction/suppression of persistent AF: canine perfused right atrial preparations; for Induction of Persistent AF: in presence of ACh 1 μM
Procedure: To assess the anti-AF potential of ranolazine, dronedarone, and their combination, we used an acetylcholine (ACh, 1.0 μM)-mediated AF model. In the presence of ACh, premature electrical stimulation (PES) or rapid pacing (CL=50-80 ms) induces persistent AF in 100% of canine coronary-perfused right atrial preparations.^9 The effect of the drugs was assessed to prevent (series 1) the induction of AF. In a separate set of preparations, the ability of these agents was evaluated to terminate (series 2) persistent AF. In the first series, ACh was added to the perfusate 20-30 min after the start of perfusion with 5 μM ranolazine, 10 μM dronedarone, or the combination of these agents. This was followed by attempts to induce the arrhythmia electrically. In the second series, the agents were added to the perfusate during ACh-mediated persistent AF (on the 5-6th minutes after the start of the arrhythmia). In cases in which the drug terminated AF, we attempted to re-induce the arrhythmia with rapid pacing.

[2] = tested on: canine pulmonary vein (PV) sleeve preparations; assay: Superfused pulmonary vein (PV) sleeve preparations; details: ranolazine 5 μM; for Reduction in Vmax following change of rate: CL 5000 to 300 ms, dronedarone 10 μM (control 13%); for Diastolic threshold of excitation (DTE): CL of 300 ms, from 0.21±0.07; for Diastolic threshold of excitation (DTE) / Shortest pacing CL permitting a 1:1 response: dronedarone 10 μM; for Shortest pacing CL permitting a 1:1 response: untreated controls 116±8
Procedure: Pulmonary vein (PV) sleeve preparations (approximately 2.0×1.5 cm) were isolated from left canine atria. The thickness of the preparation was approximately 2 mm. […] The preparations were placed in a small tissue bath and superfused with Tyrode's solution of the following composition (mM): 129 NaCl, 4 KCl, 0.9 NaH2PO4, 20 NaHCO3, 1.8 CaCl2, 0.5 MgSO4, 5.5 glucose, buffered with 95% O2/5% CO2 (35±0.5° C.). The PV preparations were stimulated at a basic cycle length (BCL) of 1000 ms during the equilibration period (1 h) using electrical pulses (1-3 ms duration, 2.5 times diastolic threshold intensity) delivered through silver bipolar electrodes insulated except at the tips. Transmembrane potentials were recorded (at a sampling rate of 40 kHz) using glass microelectrodes filled with 3 M KCl (10-20 MΩ DC resistance) connected to a high input-impedance amplification system (World Precision Instruments, model KS-700, New Haven, Conn.). The following parameters were measured: DTE, Vmax, and shortest S1-S1 permitting 1:1 activation. Acetylcholine (ACh, 1 μM), isoproterenol (1 μM), high calcium or their combination were used to induce late phase 3 EADs, DADs and triggered activity.

[3] = tested on: ACh-mediated persistent AF in isolated canine coronary-perfused right atria; assay: Acetylcholine (ACh)-mediated persistent AF model in coronary-perfused right atria; details: ranolazine 5 μM, dronedarone 10 μM; without ACh
[4] = tested on: isolated canine coronary-perfused right atria; assay: Electrophysiology in isolated coronary-perfused canine right atrial preparations; details: for Shortest S1-S1 (shortest CL permitting 1:1 activation) / APD90 / ERP: ranolazine 5 μM, dronedarone 10 μM; for APD90 / ERP: pectinate muscle, CL of 500 ms
Procedure: Experiments were performed using isolated coronary-perfused canine right atrial (RA) and left ventricular (LV) preparations (≈3×1.5×1 cm). Isolation and perfusion of the preparations were as previously described.^9, 15, 16 Briefly, preparations were dissected from hearts removed from anesthetized (sodium pentobarbital) adult mongrel dogs (20-30 kg). Unfolded RA with attached rim of the right ventricle was cannulated and perfused with cold cardioplegic solution (4-8° C.) through the ostium of the right coronary artery; the LV wedge was perfused through a diagonal branch of the left anterior descending coronary artery. Unperfused tissue was removed with a razor blade. Cut ventricular and atrial branches were ligated using silk thread. The preparations were then transferred to a temperature-controlled bath and arterially-perfused with Tyrode's solution by use of a roller pump. The composition of the Tyrode's solution was (in mM): NaCl 129, KCl 4, NaH2PO4 0.9, NaHCO3 20, CaCl2 1.8, MgSO4 0.5, and D-glucose 5.5, buffered with 95% O2 and 5% CO2 (37±0.5° C., pH=7.35)
Transmembrane action potential (AP) recordings were obtained using floating glass microelectrodes at a sampling rate of 40 kHz. A pseudo-electrocardiogram (ECG) was recorded using two electrodes consisting of Ag/AgCl half cells placed in the Tyrode's solution bathing the preparation, 1.0 to 1.5 cm from the two opposite sides of the atrial or ventricular coronary-perfused preparations. Conduction time was approximated by the duration of “P wave” in atria and “QRS complex” in ventricles, at a level representing 10% of “P wave” and “QRS” amplitude. Diastolic threshold of excitation (DTE) was determined by increasing stimulus intensity in 0.01 mA steps. Effective refractory period (ERP) was measured by delivering premature stimuli at progressively shorter S1-S2 intervals after every 10 basic beats at a pacing cycle length (CL) of 500 ms (5 ms steps; 2 times DTE). Post-repolarization refractoriness (PRR) was recognized when ERP exceeded action potential duration measured at 90% repolarization (APD90) in the ventricle and APD measured at 70% repolarization (APD70) in atria. Ventricular ERP was coincident with APD90, whereas atrial ERP was generally coincident with APD70-75.^9 The shortest S1-S1 permitting 1:1 activation was measured by progressively shortening pacing CL starting from a CL of 500 ms.
Stable AP recordings could not be readily obtained in the vigorously contracting perfused preparations. The largest recorded maximum rate of rise of the AP upstroke (Vmax) values per experimental condition were taken for statistical comparison. Only APs having amplitudes of at least 100 mV were considered in the analysis. The largest Vmax criterion was used because this was associated with the largest amplitude and the most negative resting membrane potential, depicting full or near full impalement. In determining use-dependent depression of Vmax, values were normalized to the Vmax value at a CL of 500 ms for each experiment and then averaged.
Because of their dependence on peak INa, Vmax, DTE, PRR, and conduction time as well the shortest S1-S1 interval permitting 1:1 activation are referred to as INa-dependent parameters.
The equilibration period for the coronary-perfused preparations was 30-120 min. The preparations were exposed to 5 μM ranolazine, 10 μM dronedarone (after 30 min washout of ranolazine), and the combination of these agents for at a period of at least 20 min. In time-control experiments, 20 minutes was sufficient to achieve steady-state in the effects of each of the drugs to alter electrophysiologic parameters. Recordings were obtained at a cycle length (CL) of 500 and 300 ms, unless otherwise indicated. […] When determining the shortest S1-S1 pacing rate permitting 1:1 activation, the stimulation intensity was DTE x 2, determined at a CL of 500 ms.

[5] = ranolazine 5 μM, dronedarone 10 μM
[6] = 2x threshold stimulus intensity, without ACh, in ms (unit assumed)

Row | Compound | Termination Persistent AF [1, 5] | Prevention of AF re-induction [1, 5] | Reduction/suppression of persistent AF [1] | Induction of Persistent AF [1, 5] | Reduction in Vmax following change of rate [2] | Diastolic threshold of excitation (DTE) [2] | Shortest pacing CL permitting a 1:1 response [2] | Induction of Persistent AF [3] | Shortest S1-S1 (shortest CL permitting 1:1 activation) [4, 6] | Prolongation of atrial ERP ([4]; current in vitro investigation) | Shortest S1-S1 (shortest CL permitting 1:1 activation) ([4]; in presence of ACh 1 μM) | APD90 ([4]; in presence of ACh 1 μM) | ERP ([4]; in presence of ACh 1 μM) | APD90 ([4]; without ACh) | ERP ([4]; without ACh) | Prevention of induction of sustained/persistent AF (atria) ([1]; pretreatment, then ACh 1 μM, ranolazine 5 μM, dronedarone 10 μM)
1 | CCCCc1oc2ccc(NS(C)(=O)=O)cc2c1C(=O)c1ccc(OCCCN(CCCC)CCCC)cc1 [Dronedarone, N-(2-Butyl-3-(p-(3-(dibutylamino)propoxy)benzoyl)-5-benzofuranyl)methanesulfonamide] | 17% | 0% | 17% | 83% | 20% | 0.26±0.09 mA | 120 ± 12 ms | 0% | 147 ± 11 | 9% | 88 ± 13 | 45 ± 5 ms | 59 ± 7 ms | 202 ± 9 ms | 171 ± 11 ms | –
2 | COc1ccccc1OCC(O)CN1CCN(CC(=O)Nc2c(C)cccc2C)CC1 (racemic) [Ranolazine, (±)-N-(2,6-dimethylphenyl)-4-[2-hydroxy-3-(2-methoxyphenoxy)-propyl]-1-piperazineacetamide] | 20% | 100% | 29% | 71% | 19% | 0.24±0.09 mA | 121 ± 13 ms | 0% | 201 ± 22 | – | 94 ± 11 | 52 ± 6 ms | 72 ± 13 ms | 210 ± 10 ms | 181 ± 11 ms | 2/7
